# Experiments:
# [1] = Solubility of clonazepam in neat solvents; details: neat PEG 300
# Description: The solubility of clonazepam in a number of neat solvents was determined using standard methods.
# [2] = Drug recovery, degradation and binding to nasal sheep mucosa; type: in vitro ADME
# Description: (i) Drug recovery, degradation and binding to nasal sheep mucosa: The effect of drug recovery, degradation and binding to sheep nasal mucosa was determined. Briefly, a known surface area (approx. 1 cm^2) of sheep nasal mucosa was added into a glass vial containing a known concentration (10 μg/mL) of each drug prepared in the receiver fluid (10% ethanol in pH 6 buffer). The content of the vial was allowed to equilibrate at 37° C. over a period of 48 h. At 24 h intervals, a sample was removed and assayed via HPLC. The percentage of drug recovered was calculated using Equation 4: % drug recovered=(drug concentration at t=Y/drug concentration at t=Z)×100 (Equation 4)
# where, Y=specific time point at 37° C. (in the presence of nasal sheep mucosa); and Z=specific time point at 37° C. (in the absence of nasal sheep mucosa).
# In addition to the stability against heat degradation, the effect of drug binding or degradation in the presence of nasal sheep mucosa was also determined (Table 6).
# qEEG mapping = type: in vivo; details: human
# Description: E. Electroencephalography (EEG) Methods: Drug and placebo are administered, for example, at a five-minute intravenous (i.v.) infusion. During 15 minutes following the beginning of the administration EEG is registered. The EEG is registered again at 30, 60, 90, 120, and 180 minutes. Subjects are typically in a quiet laboratory (soundproof and electrically shielded room). During acquisition of EEG measurements subjects recline in an armchair. Usually twenty-eight EEG leads (issued, for example, from a 10-20 system; Jasper, H. H., et al., “Studies of clinical and electrical responses to deep temporal stimulation in men with some considerations of functional anatomy,” Res Publ Assoc Res Nerv Ment Dis. 36:316-34 (1958); Japser, H. H., “Progress and problems in brain research,” J Mt Sinai Hosp N Y. 25(3):244-53 (1958)) are used for recording. An ear linked reference, as well as four artifact channels (detection of eye movement, muscle activity, and other potentials for artifacts) may be used. Silver-plated disc electrodes are attached to subject's scalp, for example, with quick drying collondion. Impedance (for example, of 2000-5000 ohms) is checked before each recording session. A calibration signal is used, before each subject is tested, in order to adjust all the recorded leads thus allowing the construction of EEG or event-related-potentials (ERP) maps. EEGs are taken under resting recording conditions (i.e., subjects are asked to relax with their eyes closed). An example of data analysis used is the method of Dago, et al. (Dago, K T, et al., “Statistical Decision Tree: a tool for studying pharmaco-EEG effects of CNS-active drugs,” Neuropsychobiology, 29(2):91-6 (1994)) which involves a statistical comparison of data obtained during active treatment versus placebo treatment. Typically, topographic mapping of mean EEG parameters and statistical evaluation of treatment effects is carried out in a selected number of healthy volunteers.
# EEG profiles are determined for patients dosed intranasally with clonazepam compositions of the present invention. […]
# [3] = oral; cited from earlier work
# [4] = Solubilities of clonazepam in solvent/water solutions (glycol ether + pH6.8 buffered water, 25° C.); type: physicochemical; details: Di (ethyleneglycol) diethyl ether, 20% solvent / 80% pH6.8 buffered water
# Description: The vials were stored at 25° C. for approximately 1 day. Prior to sampling, the vials were centrifuged at 5000 rpm for 2 minutes at 23° C. The results are shown below; neat solvent solubilities from Example 11 are included for reference. Increased water content decreases solubility substantially.
# [5] = Solubilities of clonazepam in glycol ethers at 3 temperatures
# Description: The vials were then centrifuged at −5° C. and 5° C. for the −15° C. and 5° C. samples, respectively, at 5000 rpm for 2 minutes.
smiles,measurement,setting,value
"O=C1CN=C(c2ccccc2Cl)c2cc([N+](=O)[O-])ccc2N1 [Clonazepam, 5-(2-chlorophenyl)-1,3-dihydro-7-nitro-2H-1,4-benzodiazepin-2-one]",Solubility,[1],37.0 mg/mL
same,degree of binding or degradation in the presence of nasal sheep mucosa,[2]; 37° C.,< 10%
same,drug recovered in the presence of nasal sheep mucosa,[2]; 37° C. over 48 h,greater than 95%
same,EEG changes from baseline,qEEG mapping; all three routes,increased delta and beta activity and decreased alpha and theta activity
same,"beta-1 relative power, time course of effects (post-hoc analysis)",qEEG mapping; intranasal administration,magnitude of effect similar to that from oral administration
same,time after dosing at which the EEG pattern was noted,qEEG mapping; oral administration,approximately 2 hours
same,time of maximum blood concentrations,[3],one to two
same,Solubilities (mg/mL) of Clonazepam in Solvent/Water Solutions,[4],0.31 mg/mL
same,Solubility,"[5]; in 1,2-dimethyxoethane, 5 C.",35.7 mg/mL
same,Solubility,"[5]; in 1,2-dimethyxoethane, −15 C.",35.2 mg/mL
same,Solubility,"[5]; in Di (ethylene glycol) methyl ether, 5 C.",53.9 mg/mL
same,Solubility,"[5]; in Di (ethylene glycol) methyl ether, −15 C.",58.1 mg/mL
same,Solubility,"[5]; in Di (ethyleneglycol) diethyl ether, 5 C.",18.5 mg/mL
same,Solubility,"[5]; in Di (ethyleneglycol) diethyl ether, −15 C.",19.5 mg/mL
same,Solubility,"[5]; in Diethylene glycol monoethyl ether, 5 C.",37.7 mg/mL
same,Solubility,"[5]; in Diethylene glycol monoethyl ether, −15 C.",43.3 mg/mL

# From US8716279B2, “Pharmaceutical compositions of clonazepam and method of use thereof” (Jazz Pharmaceuticals, Inc., priority 2006, dated 2014)
